Test results reported in ChEMBL document CHEMBL4052762, “Synthesis and biological evaluation of pyrrole-based chalcones as CYP1 enzyme inhibitors, for possible prevention of cancer and overcoming cisplatin resistance” (Bioorg Med Chem Lett, 2017).

Tests used:
[1] = target: Cytochrome P450 2C19 (Homo sapiens, UniProt P33261); assay: Inhibition of human CYP2C19 bound to yeast microsomal membrane using 3-cyano-7-ethoxycoumarin as substrate after 10 mins by fluorescence assay; type: ADME
[2] = target: T1, Cytochrome P450 1A2 (Homo sapiens, UniProt P05177); assay: Inhibition of human CYP1A2 bound to yeast microsomal membrane using 3-cyano-7-ethoxycoumarin as substrate after 10 mins by fluorescence assay
T1 sequence (P05177 whole entry): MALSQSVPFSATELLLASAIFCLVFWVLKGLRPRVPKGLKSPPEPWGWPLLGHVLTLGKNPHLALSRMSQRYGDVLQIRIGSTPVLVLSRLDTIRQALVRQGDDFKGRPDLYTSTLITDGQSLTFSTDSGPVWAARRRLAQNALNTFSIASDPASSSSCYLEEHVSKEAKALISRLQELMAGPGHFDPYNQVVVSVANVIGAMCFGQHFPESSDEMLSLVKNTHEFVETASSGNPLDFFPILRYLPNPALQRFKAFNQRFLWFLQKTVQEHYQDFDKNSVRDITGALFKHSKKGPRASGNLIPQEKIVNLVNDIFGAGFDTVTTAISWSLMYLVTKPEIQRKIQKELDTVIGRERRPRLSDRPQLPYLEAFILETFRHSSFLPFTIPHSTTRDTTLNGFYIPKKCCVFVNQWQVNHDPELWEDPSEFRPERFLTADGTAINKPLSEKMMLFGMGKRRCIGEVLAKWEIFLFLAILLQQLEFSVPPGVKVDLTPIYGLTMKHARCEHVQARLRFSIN

[3] = target: Cytochrome P450 2D6 (Homo sapiens, UniProt P10635); assay: Inhibition of human CYP2D6 bound to yeast microsomal membrane using 7-ethoxy-methyloxy-3-cyanocoumarin as substrate after 10 mins by fluorescence assay; type: ADME
[4] = target: T2, Cytochrome P450 1A1 (Homo sapiens, UniProt P04798); assay: Inhibition of human CYP1A1 bound to yeast microsomal membrane using 7-ethoxyresorufin as substrate after 10 mins by fluorescence assay
T2 sequence (P04798 whole entry): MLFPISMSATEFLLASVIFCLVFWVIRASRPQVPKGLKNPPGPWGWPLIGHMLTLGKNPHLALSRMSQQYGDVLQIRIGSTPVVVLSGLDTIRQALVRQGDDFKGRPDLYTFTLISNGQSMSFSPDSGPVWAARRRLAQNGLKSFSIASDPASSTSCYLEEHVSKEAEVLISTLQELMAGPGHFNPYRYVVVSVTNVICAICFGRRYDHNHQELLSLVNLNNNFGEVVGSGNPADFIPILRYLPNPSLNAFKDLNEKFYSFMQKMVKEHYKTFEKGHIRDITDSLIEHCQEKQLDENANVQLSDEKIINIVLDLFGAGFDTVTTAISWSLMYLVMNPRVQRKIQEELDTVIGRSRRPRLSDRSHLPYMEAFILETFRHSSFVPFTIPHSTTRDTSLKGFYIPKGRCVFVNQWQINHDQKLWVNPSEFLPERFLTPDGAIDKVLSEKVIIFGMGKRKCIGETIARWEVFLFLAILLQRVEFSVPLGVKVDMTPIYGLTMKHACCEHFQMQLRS

[5] = target: Cytochrome P450 2C9 (Homo sapiens, UniProt P11712); assay: Inhibition of human CYP2C9 bound to yeast microsomal membrane using 3-cyano-7-ethoxycoumarin as substrate after 10 mins by fluorescence assay; type: ADME
[6] = target: Cytochrome P450 3A4 (Homo sapiens, UniProt P08684); assay: Inhibition of human CYP3A4 bound to yeast microsomal membrane using dibenzylfluorescein as substrate after 10 mins by fluorescence assay; type: ADME
[7] = target: T3, Cytochrome P450 1B1 (Homo sapiens, UniProt Q16678); assay: Inhibition of human CYP1B1 bound to yeast microsomal membrane using 7-ethoxyresorufin as substrate after 10 mins by fluorescence assay
T3 sequence (Q16678 whole entry): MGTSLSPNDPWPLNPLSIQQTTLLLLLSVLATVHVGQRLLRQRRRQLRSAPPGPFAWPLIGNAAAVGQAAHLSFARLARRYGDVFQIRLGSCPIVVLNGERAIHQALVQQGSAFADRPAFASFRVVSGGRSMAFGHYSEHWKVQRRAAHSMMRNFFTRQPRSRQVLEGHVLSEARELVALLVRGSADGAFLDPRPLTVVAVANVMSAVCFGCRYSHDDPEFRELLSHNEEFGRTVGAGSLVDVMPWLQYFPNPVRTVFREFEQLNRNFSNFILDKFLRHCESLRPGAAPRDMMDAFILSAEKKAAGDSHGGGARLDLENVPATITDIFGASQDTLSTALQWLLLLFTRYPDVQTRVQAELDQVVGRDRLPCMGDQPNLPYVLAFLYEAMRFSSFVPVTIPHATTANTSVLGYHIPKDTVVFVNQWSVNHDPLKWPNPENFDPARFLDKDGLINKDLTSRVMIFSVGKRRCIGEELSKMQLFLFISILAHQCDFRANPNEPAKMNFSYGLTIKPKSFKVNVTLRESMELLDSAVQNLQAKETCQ

Cytochrome P450 2D6, sequence (P10635 whole entry): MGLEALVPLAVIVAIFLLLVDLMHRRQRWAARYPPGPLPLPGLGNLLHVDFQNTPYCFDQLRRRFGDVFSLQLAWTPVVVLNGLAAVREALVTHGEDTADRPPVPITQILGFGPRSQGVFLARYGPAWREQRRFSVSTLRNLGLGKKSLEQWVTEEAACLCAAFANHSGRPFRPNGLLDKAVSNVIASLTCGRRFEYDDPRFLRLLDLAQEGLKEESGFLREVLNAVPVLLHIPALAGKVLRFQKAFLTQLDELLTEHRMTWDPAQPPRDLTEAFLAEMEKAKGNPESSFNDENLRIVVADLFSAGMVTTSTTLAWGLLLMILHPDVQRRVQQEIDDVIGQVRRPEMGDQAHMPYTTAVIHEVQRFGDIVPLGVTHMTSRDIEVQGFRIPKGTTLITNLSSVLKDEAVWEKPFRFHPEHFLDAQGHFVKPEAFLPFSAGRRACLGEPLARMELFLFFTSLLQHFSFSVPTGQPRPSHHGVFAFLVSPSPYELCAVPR
Cytochrome P450 2C19, sequence (P33261 whole entry): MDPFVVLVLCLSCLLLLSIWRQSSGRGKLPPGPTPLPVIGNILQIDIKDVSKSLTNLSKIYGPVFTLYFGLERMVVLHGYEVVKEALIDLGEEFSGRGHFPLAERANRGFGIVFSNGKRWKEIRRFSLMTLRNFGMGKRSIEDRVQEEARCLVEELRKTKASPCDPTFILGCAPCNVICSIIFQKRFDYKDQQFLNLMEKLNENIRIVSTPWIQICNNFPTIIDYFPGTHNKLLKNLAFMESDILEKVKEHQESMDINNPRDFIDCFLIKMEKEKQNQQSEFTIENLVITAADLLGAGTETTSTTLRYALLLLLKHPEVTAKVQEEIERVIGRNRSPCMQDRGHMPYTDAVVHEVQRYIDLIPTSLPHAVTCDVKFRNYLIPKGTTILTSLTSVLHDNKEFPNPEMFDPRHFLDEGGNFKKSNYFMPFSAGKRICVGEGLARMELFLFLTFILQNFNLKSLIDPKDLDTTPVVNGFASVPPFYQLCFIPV
Cytochrome P450 3A4, sequence (P08684 whole entry): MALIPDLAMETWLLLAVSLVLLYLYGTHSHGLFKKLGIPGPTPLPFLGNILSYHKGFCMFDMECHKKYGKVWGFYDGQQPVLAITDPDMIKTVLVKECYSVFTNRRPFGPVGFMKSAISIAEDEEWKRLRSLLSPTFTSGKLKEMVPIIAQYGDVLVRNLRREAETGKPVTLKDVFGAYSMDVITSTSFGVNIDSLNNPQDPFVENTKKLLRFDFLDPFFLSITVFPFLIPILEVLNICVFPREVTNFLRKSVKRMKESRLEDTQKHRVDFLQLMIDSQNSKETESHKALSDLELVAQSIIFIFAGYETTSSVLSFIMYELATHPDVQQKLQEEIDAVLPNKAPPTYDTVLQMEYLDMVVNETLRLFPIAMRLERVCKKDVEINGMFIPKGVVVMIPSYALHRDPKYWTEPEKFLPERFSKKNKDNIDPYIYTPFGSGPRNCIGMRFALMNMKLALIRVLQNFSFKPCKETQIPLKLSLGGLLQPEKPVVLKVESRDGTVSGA
Cytochrome P450 2C9, sequence (P11712 whole entry): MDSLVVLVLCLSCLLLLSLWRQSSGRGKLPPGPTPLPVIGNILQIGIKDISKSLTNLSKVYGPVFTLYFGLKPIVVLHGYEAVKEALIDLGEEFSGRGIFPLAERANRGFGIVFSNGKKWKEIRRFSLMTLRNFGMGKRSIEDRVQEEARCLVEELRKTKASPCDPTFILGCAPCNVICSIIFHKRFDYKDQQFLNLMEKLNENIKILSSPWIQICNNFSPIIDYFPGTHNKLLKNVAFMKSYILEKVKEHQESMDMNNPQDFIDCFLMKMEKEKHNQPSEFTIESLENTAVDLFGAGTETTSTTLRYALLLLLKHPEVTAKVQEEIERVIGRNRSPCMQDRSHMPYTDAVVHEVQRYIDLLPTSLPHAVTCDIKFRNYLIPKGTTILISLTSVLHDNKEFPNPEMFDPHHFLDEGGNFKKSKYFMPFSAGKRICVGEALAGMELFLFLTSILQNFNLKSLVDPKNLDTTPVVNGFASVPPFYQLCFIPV

Row | SMILES | IC50 [1] [µM] | IC50 [2] [µM] | IC50 [3] [µM] | IC50 [4] [µM] | IC50 [5] [µM] | IC50 [6] [µM] | IC50 [7] [µM]
1 | O=C(/C=C/c1cccc(Br)c1)c1ccc[nH]1 | > 20 | > 20 | 14 | > 20 | > 20 | > 20 | 13
2 | O=C(/C=C/c1cc([N+](=O)[O-])ccc1Cl)c1ccc[nH]1 | > 20 | 10.9 | 12 | > 20 | > 20 | > 20 | > 20
3 | COc1ccc(/C=C/C=C/C(=O)c2ccc[nH]2)cc1 | > 20 | 13 | 18 | > 20 | > 20 | > 20 | > 20
4 | CN(C)c1ccc(/C=C/C(=O)c2ccc[nH]2)cc1 | > 20 | 12.5 | 13 | > 20 | > 20 | > 20 | > 20
5 | CCc1ccc(/C=C/C(=O)c2ccc[nH]2)o1 | > 20 | 2.5 | 17 | > 20 | > 20 | > 20 | 9.2
6 | O=C(/C=C/c1ccc(Br)cc1)c1ccc[nH]1 | > 20 | 13.2 | 18 | > 20 | > 20 | > 20 | 8.5
7 | O=C(/C=C/c1ccccc1F)c1ccc[nH]1 | > 20 | 2.2 | 16 | > 20 | > 20 | > 20 | 2.7
8 | O=C(/C=C/c1ccc2c(c1)OCO2)c1ccc[nH]1 | > 20 | 9.7 | 14 | 5.8 | > 20 | > 20 | > 20
9 | O=C(/C=C/c1c2ccccc2cc2ccccc12)c1ccc[nH]1 | > 20 | > 20 | 12 | > 20 | > 20 | > 20 | > 20
10 | O=C(/C=C/C=C/c1ccccc1)c1ccc[nH]1 | > 20 | 10.5 | 12 | > 20 | > 20 | > 20 | > 20
11 | O=C(/C=C/c1cccc(Cl)c1)c1ccc[nH]1 | > 20 | 12 | 14 | 16 | > 20 | > 20 | 1.5
12 | O=C(O)c1ccc(/C=C/C(=O)c2ccc[nH]2)cc1 | > 20 | > 20 | 18 | > 20 | > 20 | > 20 | > 20

Second part, the compound after the results:

Row | IC50 [1] [µM] | IC50 [2] [µM] | IC50 [3] [µM] | IC50 [4] [µM] | IC50 [5] [µM] | IC50 [6] [µM] | IC50 [7] [µM] | SMILES
13 | > 20 | 9.2 | 16 | 5.2 | > 20 | > 20 | > 20 | COc1cccc(/C=C/C(=O)c2ccc[nH]2)c1OC
14 | > 20 | 15 | 14 | > 20 | > 20 | > 20 | > 20 | COc1cc(/C=C/C(=O)c2ccc[nH]2)cc(OC)c1OC
15 | > 20 | 11.8 | 16 | > 20 | > 20 | > 20 | > 20 | COc1ccc(/C=C/C(=O)c2ccc[nH]2)cc1
16 | > 20 | 10 | 11 | 11.8 | > 20 | > 20 | > 20 | COc1ccc(/C=C/C(=O)c2ccc[nH]2)c(OC)c1
17 | > 20 | 1.5 | 11 | 6.2 | > 20 | > 20 | 5.2 | COc1cccc(/C=C/C(=O)c2ccc[nH]2)c1
18 | > 20 | 9 | 15 | 6.1 | > 20 | > 20 | > 20 | COc1cc(/C=C/C(=O)c2ccc[nH]2)cc(OC)c1
19 | > 20 | 17 | 13 | > 20 | > 20 | > 20 | > 20 | COc1ccc(/C=C/C(=O)c2ccc[nH]2)cc1Br
20 | > 20 | 10 | 18 | 10.8 | > 20 | > 20 | > 20 | COc1cccc(OC)c1/C=C/C(=O)c1ccc[nH]1
